Experimental data published in patent US10568828B2, “Peptide having hair growth-promoting activity and use thereof” (CAREGEN CO., LTD., priority 2016, dated 2020).
Ends that are not written are not given here.

What was measured:
Assay type in all cases: cell-based
[1] = test system: Human hair follicle dermal papilla cells; assay: DPC proliferation assay (MTT); details: serum-free medium, 3 days incubation, absorbance 550 nm
Experimental: Human hair follicle dermal papilla cells were seeded at a density of 2×10^3 cells/well on 96-well plates, followed by incubation overnight. After changing into serum-free medium, the cells were treated with the peptides, followed by incubation for 3 days, and then the wells were treated with 4 mg/ml MTT solution, followed by reaction for 4 hours. The resulting formazan was solubilized with DNSO, and then the absorbance was measured at 550 nm using a microplate reader.

β-catenin = assay: β-Catenin activation test (Western blot of nuclear protein); details: human hair follicle dermal papilla cells, 15 and 30 minutes, Western blot of nuclei
Experimental: Human hair follicle dermal papilla cells were seeded at a density of 4×10^5 cells/well on 6-well plates, followed by incubation overnight. After changing into serum-free medium, the cells were treated with the peptides, followed by incubation for 15 and 30 minutes, and then the wells were harvested to isolate nuclear and cytoplasmic proteins. Western blotting was performed using β-catenin (Santa Cruz Biotechnology, USA) to compare β-catenin expression patterns in nuclei.

KGF = KGF RT-PCR; details: human hair follicle dermal papilla cells, 24 hours
Experimental: (§1) Human hair follicle dermal papilla cells were seeded at a density of 4×10^5 cells/well on 6-well plates, followed by incubation overnight. After changing into serum-free medium, the cells were treated with the peptides, followed by incubation for 24 hours, and then the wells were harvested to isolate RNA. After RNA quantification, cDNA synthesis was conducted using the cDNA synthesis kit (Intron, Korea), followed by PCR using PCR premix (Intron, Korea) and respective KGF, bFGF, and VEGF primers, and then electrophoresis was performed on 5% agarose gel to compare the mRNA expression levels of the growth factors for each sample treatment conditions.

bFGF = bFGF RT-PCR; details: human hair follicle dermal papilla cells, 24 hours
Experimental: as §1

PI3K = PI3K Western blot; details: human hair follicle dermal papilla cells, 15 and 30 minutes
Experimental: (§2) Human hair follicle dermal papilla cells were seeded at a density of 4×10^5 cells/well on 6-well plates, followed by incubation overnight. After changing into serum-free medium, the cells were treated with the peptides, followed by incubation for 15 and 30 minutes, and then the wells were harvested to prepare cell lysates. Western blotting was performed using PI3K antibodies (Santa Cruz Biotechnology, USA) and phospho-ERK antibody (Cell Signaling Technology, USA) to compare protein expression patterns.

ERK = assay: p-ERK Western blot; details: human hair follicle dermal papilla cells, 15 and 30 minutes
Experimental: as §2

TGF-β1 = TGF-β1 RT-PCR; details: human hair follicle dermal papilla cells, 24 hours
Experimental: as §1, with “separate” for “isolate”, “TGF-β1” for “respective KGF, bFGF, and VEGF”, “levels” for “levels of the growth factors”

Bcl-2 = Bcl-2 Western blot; details: human hair follicle dermal papilla cells, 24 hours
Experimental: as §2, with “plate,” for “plates,”, “24 hours,” for “15 and 30 minutes,”, “Bcl-2 and Bax” for “PI3K”, “Biotechnology,” for “Biotechnology, USA) and phospho-ERK antibody (Cell Signaling Technology,”

Bax = Bax Western blot; details: human hair follicle dermal papilla cells, 24 hours
Experimental: as §2, with “plate,” for “plates,”, “24 hours,” for “15 and 30 minutes,”, “Bcl-2 and Bax” for “PI3K”, “Biotechnology,” for “Biotechnology, USA) and phospho-ERK antibody (Cell Signaling Technology,”

keratin-14 = assay: Keratin-14 RT-PCR; details: human hair follicle dermal papilla cells, 24 hours
Experimental: as §1, with “5×10^5” for “4×10^5”, “keratin” for “respective KGF, bFGF, and VEGF”, “levels” for “levels of the growth factors”, “respective” for “each”

VEGF = VEGF RT-PCR; details: human hair follicle dermal papilla cells, 24 hours
Experimental: as §1

MSX2 = MSX2 RT-PCR; details: human hair follicle dermal papilla cells, 24 hours
Experimental: as §1, with “MSX2” for “respective KGF, bFGF, and VEGF”, “levels” for “levels of the growth factors”

Row | Substance | growth of human hair follicle dermal papilla cells [1] | nuclear translocation due to the increase in activity of β-catenin (β-catenin) | mRNA expression of KGF (KGF) | mRNA expression of bFGF (bFGF) | PI3K expression (PI3K) | ERK phosphorylation (ERK) | mRNA expression of TGF-β1 (TGF-β1) | expression of the apoptosis inhibiting protein Bcl-2 (Bcl-2) | expression of the apoptosis-related protein Bax (Bax) | mRNA expression of keratin-14 (keratin-14) | mRNA expression of VEGF (VEGF) | mRNA expression of MSX2 (MSX2)
1 | Arg-Arg-Lys-Ile (RRKI) [SEQ ID NO: 1] | stimulated in a dose-dependent manner | stimulated | increased | increased | increase | increase | inhibited | increase | decrease | increased |  | 
2 | Ile-Tyr-Phe-Tyr (IYFY) [SEQ ID NO: 2] | stimulated in a dose-dependent manner | stimulated |  |  | increase | increase | inhibited |  |  |  | increased | stimulated
3 | KKFIQQVYLAI [SEQ ID NO: 3] | stimulated in a dose-dependent manner | stimulated |  | increased | increase | increase |  | increase | decrease |  | increased | stimulated
